The source of these data is ChEMBL document CHEMBL3045885, “Evaluation of antileishmanial activities of triglycerides isolated from roots of Moringa stenopetala” (Med Chem Res, 2013).

As a reminder, the IC50 is the concentration that gives 50% inhibition. Read a high IC50 as lower potency.

Values after ≈ are worked out from the molar mass of the structure shown.

The subject of assay [1] is Leishmania aethiopica. The experiment in a line: Antileishmanial activity against amastigote form of Leishmania aethiopica MHOM/ET/82/117-82 infected in BALB/c mouse peritoneal exudate macrophages after 5 days. As to conditions: MHOM/ET/82/117-82, 120 h. It is filed as functional, organism-based.
The subject of assay [2] is Leishmania aethiopica. Briefly: Antileishmanial activity against promastigote form of Leishmania aethiopica MHOM/ET/82/117-82 […] after 72 hr. It counts as functional, organism-based. As to conditions: MHOM/ET/82/117-82, 72 h.

Regarding `CCCCC/C=C\C/C=C\CCCCCCCC(=O)OC(COC(=O)CCCCCCC/C=C\CCCCCCCC)COC(=O)CCCCCCC/C=C\CCCCCCCC`, the figures for the IC50 in assay [1] and in assay [2] were 26.8 µg/mL (≈ 30.3 µM) and 242 µg/mL (≈ 274 µM), respectively.

For the molecule `CCCCC/C=C\C/C=C\CCCCCCCC(=O)OCC(COC(=O)CCCCCCC/C=C\C/C=C\CCCCC)OC(=O)CCCCCCC/C=C\CCCCCCCC`, the IC50 was 40 µg/mL (≈ 45.4 µM) in assay [1] and 0.079 µg/mL (≈ 0.0896 µM) in assay [2].

`C[C@@H]1[C@H](O)[C@@H](C)/C=C/C=C/C=C/C=C/C=C/C=C/C=C/[C@H](O[C@@H]2O[C@H](C)[C@@H](O)[C@H](N)[C@@H]2O)C[C@@H]2O[C@](O)(C[C@@H](O)C[C@@H](O)[C@H](O)CC[C@@H](O)C[C@@H](O)CC(=O)O[C@H]1C)C[C@H](O)[C@H]2C(=O)O` [AMPHOTERICIN B]: the values for the IC50 in assay [1] and in assay [2] were 0.032 µg/mL (≈ 0.0346 µM) and 0.004 µg/mL (≈ 0.00433 µM), respectively.

Consider `CCCCCCCCCCCCCCCCOP(=O)([O-])OCC[N+](C)(C)C` [MILTEFOSINE], for which the IC50 stood at 0.121 µg/mL (≈ 0.297 µM) in assay [1] and 0.136 µg/mL (≈ 0.334 µM) in assay [2].
